{
  "source": "patent US20160113925A1",
  "about": "“METHODS OF TREATING CANCER WITH A COMBINATION OF GLUCOSE MODULATORS AND BCL-2 INHIBITORS” (EMORY UNIVERSITY, priority 2014, published 2016)",
  "type_in_all_cases": "cell-based",
  "key": {"[1]": {"tested_on": "L363, KMS11, MM.1S and AMO1 cell lines", "assay": "Metabolic supplementation of glutamine deprived MM cell lines: reversal of sensitization to ABT-199", "conditions": "glutamine deprived L363, KMS11, MM.1S and AMO1 cell lines supplemented with metabolite", "description": "The metabolic specificity of glutamine deprivation-induced sensitization to ABT-199 […]. Glutamine deprived cells were supplemented with various metabolites generated by metabolism of glutamine and evaluated for their ability to reverse sensitization to ABT-199. Glutamine deprived MM cell lines were supplemented with galactose, dimethyl fumarate, dimethyl succinate, oxaloacetic acid, 2 methyl pyruvate, a mixture of non-essential amino acids or cell permeant dimethyl alpha ketoglutarate (DMK)."}, "[2]": {"tested_on": "MM cell lines", "assay": "Sensitization of MM cell lines to ABT-199 (venetoclax) by ritonavir or DON", "conditions": "MM cell lines cultured with ritonavir (40 uM) or DON (0.1 mM); FIGS. 1 and 2", "description": "(§1) Ritonavir is an HIV […] that is also a reversible non-competitive inhibitor of glucose transport through GLUT4. […] Glutamine antagonist DON (6-Diazo-5-oxo-L-norleucine) effectively block first step of glutaminolysis pathway and thus restrict cells for using glutamine."}, "[3]": {"tested_on": "MM patient samples", "assay": "Sensitization of MM patient samples to ABT-199 (venetoclax) by ritonavir or DON", "conditions": "for efficacy of the combination with ABT-199 (venetoclax) in patient samples: highly responsive samples were from relapse refractory patients", "description": "as §1"}, "[4]": {"tested_on": "MM lines", "assay": "Impact of glucose or glutamine withdrawal on sensitivity of MM lines to ABT-199 (venetoclax)", "protocol": "Eight MM cell lines were assessed for induction of apoptosis upon culture in media deprived of glucose, glutamine or both nutrients. While all cells are growth inhibited the extent of apoptosis elicited was highly variable. […] Continued survival upon nutrient deprivation despite induction of BIM could be due to increased sequestration of BIM with the induced BCL-2. […] The BH3 mimetic ABT-199 (venetoclax) targets the BIM-BCL-2 interaction. The impact of either glucose or glutamine withdrawal on sensitivity to ABT-199 (venetoclax) was evaluated."}},
  "note": "Structures can show the parent of a compound that is named as a salt.",
  "data": [
    {"compound": "COC(=O)C(C)=O", "note": "[2 methyl pyruvate]", "values": [
      {"measurement": "reversal of glutamine deprivation-induced sensitization to ABT-199", "setting": "[1]", "value": "only the addition of DMK reversed sensitization"}
    ]},
    {"compound": "COC(=O)CCC(=O)C(=O)OC", "note": "[DMK, dimethyl alpha ketoglutarate]", "values": [
      {"measurement": "reversal of glutamine deprivation-induced sensitization to ABT-199", "setting": "[1]", "value": "reversed sensitization"}
    ]},
    {"compound": "[N-]=[N+]=CC(=O)CC[C@H](N)C(=O)O", "note": "[DON, 6-Diazo-5-oxo-L-norleucine]", "values": [
      {"measurement": "sensitivity to ABT-199 (venetoclax) in MM cell lines", "setting": "[2]", "value": "increased sensitivity"},
      {"measurement": "sensitivity to ABT-199 (venetoclax) in patient samples", "setting": "[3]", "value": "increased sensitivity"},
      {"measurement": "efficacy of the combination with ABT-199 (venetoclax) in patient samples", "setting": "[3]", "value": "highly efficacious"}
    ]},
    {"compound": "CC(C)c1nc(CN(C)C(=O)N[C@H](C(=O)N[C@@H](Cc2ccccc2)C[C@H](O)[C@H](Cc2ccccc2)NC(=O)OCc2cncs2)C(C)C)cs1", "note": "[Ritonavir, 1,3-thiazol-5-ylmethyl N-[(2S,3S,5S)-3-hydroxy-5-[[(2S)-3-methyl-2-[[methyl-[(2-propan-2-yl-1,3-thiazol-4-yl)methyl]carbamoyl]amino]butanoyl]amino]-1,6-diphenylhexan-2-yl]carbamate]", "values": [
      {"measurement": "sensitivity to ABT-199 (venetoclax) in MM cell lines", "setting": "[2]", "value": "significantly increased sensitivity"},
      {"measurement": "sensitivity to ABT-199 (venetoclax) in patient samples", "setting": "[3]", "value": "significantly increased sensitivity"},
      {"measurement": "efficacy of the combination with ABT-199 (venetoclax) in patient samples", "setting": "[3]", "value": "highly efficacious"}
    ]},
    {"compound": "COC(=O)/C=C/C(=O)OC", "note": "[dimethyl fumarate]", "values": [
      {"measurement": "reversal of glutamine deprivation-induced sensitization to ABT-199", "setting": "[1]", "value": "only the addition of DMK reversed sensitization"}
    ]},
    {"compound": "COC(=O)CCC(=O)OC", "note": "[dimethyl succinate]", "values": [
      {"measurement": "reversal of glutamine deprivation-induced sensitization to ABT-199", "setting": "[1]", "value": "only the addition of DMK reversed sensitization"}
    ]},
    {"compound": "O=C[C@H](O)[C@@H](O)[C@@H](O)[C@H](O)CO", "note": "[galactose]", "values": [
      {"measurement": "reversal of glutamine deprivation-induced sensitization to ABT-199", "setting": "[1]", "value": "only the addition of DMK reversed sensitization"}
    ]},
    {"compound": "O=C(O)CC(=O)C(=O)O", "note": "[oxaloacetic acid]", "values": [
      {"measurement": "reversal of glutamine deprivation-induced sensitization to ABT-199", "setting": "[1]", "value": "only the addition of DMK reversed sensitization"}
    ]},
    {"compound": "venetoclax [ABT-199 (venetoclax)]", "values": [
      {"measurement": "sensitization of MM lines to ABT-199 (venetoclax) on nutrient withdrawal", "setting": "[4]", "value": "sensitize all MM lines"}
    ]}
  ]
}
